Laboratory results: patent US4551460A, “Pyrido[2,1-b]quinazoline derivatives useful as agents for treatment of allergic conditions and vascular disorders involving thrombosis” (priority 1983, dated 1985)
Where a name gives a salt, the structure may show the parent alone. Read-outs that look alike come from different tables or passages of the source.

How the values were obtained:
[1] = test system: arachidonic acid induced platelet aggregation; test: Arachidonic acid induced platelet aggregation in vitro; assay type: cell-based; conditions: read-out: AA (IC50, arachidonic acid induced platelet aggregation)
Protocol: (§1) (1) Assay for Platelet Aggregation In Vitro
(§2) The turbidometric method of G. V. R. Born, Nature 194, 927 (1962) is used. Platelet rich plasma (PRP) and platelet poor plasma (PPP) are prepared with 0.38% sodium citrate-treated blood. Speed and time of centrifugation varied with different species; human:160 g for 20 minutes, dog:160 g for 15 minutes, guinea pig and rabbit:160 g for 15 minutes, and rat:230 g for 10 minutes. Aggregation is monitored with a Payton dual channel module or Chronolog lumiaggregometer when the release of ATP is simultaneously measured. 0.45 ml of PRP is added to a cuvette and prewarmed to 37° C. The stimulant (arachidonic acid or synthetic platelet activating factor) is added in volumes of 50 μl; all other agents in 5 μl. Vehicles are added to samples not containing agents. 0 to 100% light transmission is set with PRP and PPP. % aggregation is calculated from the % increase in light transmission at 5 minutes after the addition of the aggregating agent. For inhibition of aggregation studies the inhibitor is added first and preincubated with the platelets for 1 minute with stirring, followed by the stimulant. % inhibition is calculated from the % aggregation with and without the test compound. [formula]

[2] = test system: platelet activating factor induced platelet aggregation; test: Platelet activating factor induced platelet aggregation in vitro; assay type: cell-based; conditions: racemic platelet activating factor; read-out: PAF (IC50, platelet activating factor induced platelet aggregation)
Protocol: as §1, §2

[3] = test system: leukotriene E induced bronchoconstriction; test: Guinea pig bronchoconstriction, in vivo (aerosol); parameters: species or system guinea pig (Hartly strain); conditions: aerosol at concentration inhibiting bronchoconstriction by 80%
Protocol: (c) Guinea Pig Bronchoconstriction, In Vivo (Aerosol):
Male guinea pigs (Hartly strain) weighing 300 to 500 g are anesthetized with urethane (2 g/kg) intraperitoneally and a polyethylene cannula is inserted into the jugular vein for drug administration. Tracheal pressure is recorded from a cannula inserted in the trachea and connected to a Statham pressure transducer. After surgical preparation of the animals, a period of time is allowed for pulmonary functions to stabilize. The test compound is administered according to the following protocol. Propranolol (0.1 mg/kg) is administered intravenously while the animals breathed spontaneously. Five minutes thereafter, the animals are exposed for a five minute period to a 1% (w/v) aerosol solution of test compound (adjusted to an alkaline pH where necessary for drug solubilization) or to distilled water of the appropriate pH (for control purposes). A Monaghan (Model 750) ultrasonic nebulizer is used to administer all test compounds by inhalation. The nebulizer ultrasonic frequency is adjusted to produce particles in the 1-8μ diameter range (average 3μ). Aqueous solutions are prepared fresh and introduced into the chamber of the nebulizer. The output of the nebulizer is made available to the animal by directing a bias flow of aerosol through a y tube connected to the tracheal cannula. At the end of the exposure period, the animals are paralyzed with succinylcholine (1.2 mg/kg, i.v.) and mechanically respirated (Harvard rodent respirator) at 40 breaths/minute and 2.5 cc tidal volume. Animals are then challenged with a maximum constrictory dose of leukotriene E delivered intravenously 30 seconds after administration of the succinylcholine.
The change (cm H2 O) between pre and peak ventilatory pressure readings is averaged for three control animals and five drug treated animals. The percent inhibition is calculated from the following formula:
(Control-Drug Tested/Control)×100
When various drug concentrations are tested, the percent inhibition at each concentration is plotted as log concentration (abscissa) versus percent inhibition (ordinate) and the IC50 is determined from linear regression analysis.
In order to determine the aerosol half-life (t 1/2), the animals are prepared as described above, except that the time between aerosol exposure and challenge with leukotriene E is varied. All compounds are administered at the concentration necessary to inhibit leukotriene-induced bronchoconstriction by 80%. Biological half-life is calculated from plots of time (abscissa) versus log percent inhibition (ordinate).

[4] = test system: leukotriene E (LTE) induced skin wheal formation in rat skin; test: LTE-induced skin wheal formation in rat; assay type: in vivo; conditions: for ED50: rat skin wheal, read-out: ID50 (the source's name)
Protocol: (a) Methodology for LTE-induced Skin Wheal Formation in Rat. The ability of a drug to inhibit leukotriene E (LTE) induced skin wheal formation in rat skin is measured. In this model system a dose of LTE which gives a maximal wheal response, is injected (in 0.05 ml of saline) intradermally into anesthetized rats which have been pretreated for 30 minutes with 50 mg/kg of pyrilamine maleate and 4 mg/kg of methyl […] maleate (both administered intraperitoneally). The animal is then immediately treated with test drug (at 10 mg/kg, i.v.) followed by an intravenous injection of Evans blue (0.5%) into the tail vein of the animal. Thirty minutes later the animals are sacrificed and the increase in capillary permeability induced by LTE is reflected by the migration of dye into the injection point in the skin (the response being quantitated by the size, in mm, of the dye spot in the skin). The average response in 5 animals (4 intradermal injections of LTE per animal) treated with the test compound is compared with the response elicited in a similar group of animals which were not treated with the drug. For oral studies, the test animals are pretreated two hours prior to intradermal injection of LTE.

[5] = LD50 in mice (acute toxicity); conditions: mouse, in vivo, po, orally
[6] = test system: leukotriene E induced bronchoconstriction; test: LTE-induced bronchoconstriction in guinea pigs, in vivo (i.v. / oral); parameters: species or system guinea pig (Hartley strain); conditions: for ED50: read-out: ID50 (the source's name)
[7] = test system: acetylcholine-induced constriction in guinea pig ilea; test: Antagonism of acetylcholine-induced constriction in guinea pig ilea; conditions: 5.0×10^-7 M acetylcholine; read-out: IC50 antagonism of acetylcholine-induced constrictions
Protocol: (e) Antagonism of Acetylcholine-induced Constriction in Guinea Pig Ilea
Anticholinergic activity was determined on a segment of guinea pig ileum that was suspended in a 37° C. bath of oxygenated Tyrodes solution. At 4 minute intervals, the ileum was challenged with 5.0×10^-7 M acetylcholine for sufficient time to produce a peak contraction and then washed with fresh Tyrodes solution. After the tissue response to acetylcholine had stablized, the ileum was pretreated with the standard anticholinergic, atropine sulfate, for 1 minute prior to rechallenge with acetylcholine, the contraction recorded and the tissue washed with Tyrodes solution. […] The IC50 for atropine was 1×10^-8 M. THe IC50 's for test drugs were determined by this same procedure.

[8] = test system: SRS-A induced contraction of guinea pig ileum; test: In vitro SRS-A antagonism; conditions: 30 seconds pretreatment
Protocol: (j) In vitro SRS-A Antagonism
SRS-A was determined by bioassay on the guinea pig ileum using a modification of the method described by Orange et al., Adv. Immunol., 1969, 10, 105. A 1.5 cm segment of the ileum, obtained from male guinea pigs (175-200 g), was suspended in an organ bath containing Tyrodes solution with 10^-6 M atropine sulfate and 10^-6 M pyrilamine maleate. The bath was maintained at 37° C. and gassed with a mixture of 95 percent oxygen and 5 percent carbon dioxide. The ileum was attached to a strain gauge transducer and isotonic contractions recorded by a strip chart recorder. A resting tension of 0.5 g was applied and the tissue allowed to equilibrate for 1 hour.
The SRS-A used in these studies was obtained by challenging a large quantity of chopped lung fragments from actively sensitized guinea pigs with egg albumin in vitro. The animals were sensitized to egg albumin by an intraperitoneal injection of the antigen (1 ml of 10 mg/ml) in saline 28 to 45 days prior to challenge. The in vitro challenge was carried out by first preincubating the lung tissue (40 mg/ml) at 37° C. in Tyrodes solution for 5 minutes, adding the egg albumin ([…] final concentration) to the fragments and after a 10 minute challenge, separating the media containing the SRS-A from the lung tissue by filtration on Whatman #1 filter paper. The concentration of SRS-A in the filtrate was calibrated by comparison of the contraction amplitude elicited in the bioassay system by a given volume of the supernatant with contractions obtained by varying concentrations of histamine. One unit of SRS-A is equivalent to that quantity which will give the same contraction as 5 ng of histamine. After standarization, the SRS-A was stored in small aliquots at -80° C. for further use. […] SRS-A antagonism was determined by pretreating the ileum with drug for 30 seconds prior to the addition of a concentration of SRS-A which have a submaximal response, determination of the amplitude of contraction elicited in the presence of drug and then washing the ileum with Tyrodes. […]

[9] = test system: histamine-induced constriction in guinea pig ilea; test: Antagonism of histamine-induced constriction in guinea pig ilea; conditions: 1×10^-7 M histamine
Protocol: (f) Antagonism of Histamine-induced Constriction in Guinea Pig Ilea
Antihistaminic activity was determined on a segment of guinea pig ileum that was suspended in a 37° C. bath of oxygenated Tyrodes solution. At 4 minute intervals, the ileum was challenged with 1×10^-7 M histamine for sufficient time to produce a peak contraction and then washed with fresh Tyrodes solution. After the tissue response to histamine had stabilized, the ileum was pretreated with the standard antihistaminic compound, pyrilamine maleate, for 1 minute prior to rechallenge with histamine, the contraction recorded, and the tissue washed with Tyrodes solution. […] By the IC50 for pyrilamine maleate in the test system was 1×10^-8 M. IC50 's for test drugs were determined by this same procedure.

| SMILES | IC50 [1] | IC50 [2] | further results |
| --- | --- | --- | --- |
| CC(C)c1ccc2nc3ccc(C(=O)NCCCCCc4ccncc4)cn3c(=O)c2c1 [Example 11, N-[5-(4-Pyridyl)pentyl]-2-(1-methylethyl)-11-oxo-11H-pyrido[2,1-b]quinazoline-8-carboxamide] | < 10 µM | < 10 µM | – |
| CC(C)c1ccc2nc3ccc(C(=O)OCCCc4cccnc4)cn3c(=O)c2c1 [Example 1, 2-(1-methylethyl)-11-oxo-11H-pyrido[2,1-b]quinazoline-8-carboxylic acid 3-(3-pyridyl)propyl ester] | > 10 µM | < 10 µM | – |
| CCCCC[C@H](O)/C=C/[C@H]1[C@H](O)CC(=O)[C@@H]1C/C=C\CCCC(=O)O [PGE2] | – | – | Biological half-life [3]: 2.1 min |
| CC(C)NCC(O)c1ccc(O)c(O)c1 (stereo not shown) [Isoproterenol] | – | – | Biological half-life [3]: 19.4 min |
| CC(C)Oc1ccc2nc3ccc(C(=O)NCCCCc4cccnc4)cn3c(=O)c2c1 [Example 19, 2-(1-Methylethoxy)-N-[4-(3-pyridyl)butyl]-11-oxo-11H-pyrido[2,1-b]quinazoline-8-carboxamide] | < 10 µM | < 10 µM | – |
| CC(C)c1ccc2nc3ccc(C(=O)NCCCCCn4ccnc4)cn3c(=O)c2c1 [Example 16, N-[5-(1H-Imidazol-1-yl)pentyl]-2-(1-methylethyl)-11-oxo-11H-pyrido[2,1-b]quinazoline-8-carboxamide] | < 10 µM | > 10 µM | – |
| CC(C)c1ccc2nc3ccc(C(=O)NCCCCc4ccncc4)cn3c(=O)c2c1 [2-(1-methylethyl)-N-[4-(4-pyridyl)butyl]-11-oxo-11H-pyrido[2,1-b]quinazoline-8-carboxamide] | > 10 µM | < 10 µM | ED50 ([4]; iv): 10 mg/kg; ED50 ([4]; po): 90 mg/kg; LD50 [5]: > 1000 mg/kg; ED50 ([6]; Cavia porcellus, iv): 1.9 mg/kg; ED50 ([6]; Cavia porcellus, po, orally (2 hours pretreatment)): 57 mg/kg |
| CN1[C@@H]2CC[C@H]1CC(OC(=O)C(CO)c1ccccc1)C2 (stereo partly shown) [atropine, atropine sulfate, reference compound] | – | – | IC50 [7]: 0.01 µM |
| CCCc1c(OCC(O)COc2ccc3c(=O)cc(C(=O)O)oc3c2CCC)ccc(C(C)=O)c1O (stereo not shown) [FPL 55712, 7-[3-(4-Acetyl-3-hydroxy-2-propylphenoxy)-2-hydroxypropoxy]-4-oxo-8-propyl-4H-1-benzopyran-2-carboxylic acid, reference compound] | – | – | Biological half-life [3]: 77 min; inhibition at 10 mg/kg ([4]; Rattus norvegicus, iv, 10 mg/kg): 88%; oral activity, LTE-induced skin wheal ([4]; orally): inactive orally; IC50 [8]: 0.03 µM; inhibition at 10 mg/kg ([6]; Cavia porcellus, iv, 10 mg/kg): 98%; oral activity, LTE-induced bronchoconstriction ([6]; orally): orally inactive |
| COc1ccc(CN(CCN(C)C)c2ccccn2)cc1 [pyrilamine maleate, reference compound] | – | – | IC50 [9]: 0.01 µM |
| Cc1ccc2nc3ccc(C(=O)NCCCCc4cccnc4)cn3c(=O)c2c1 [Example 17, 2-Methyl-N-[4-(3-pyridyl)butyl]-11-oxo-11H-pyrido[2,1-b]quinazoline-8-carboxamide] | < 10 µM | > 10 µM | – |
| O=C(NCCCCc1cccnc1)c1ccc2nc3ccc(O)cc3c(=O)n2c1 [Example 22, 2-Hydroxy-N-[4-(3-pyridyl)butyl]-11-oxo-11H-pyrido[2,1-b]quinazoline-8-carboxamide] | < 10 µM | < 10 µM | – |
| CC(C)c1ccc2nc3ccc(C(=O)NCCSc4ccncc4)cn3c(=O)c2c1 [Example 12, N-[2-(4-Pyridylthio)ethyl]-2-(1-methylethyl)-11-oxo-11H-pyrido[2,1-b]quinazoline-8-carboxamide] | < 10 µM | < 10 µM | – |
